Patent publication US20230190743A1, “TREATMENT WITH ILEAL BILE ACID TRANSPORTER (IBAT) INHIBITORS FOR INCREASED EVENT-FREE SURVIVAL (EFS)” (Mirum Pharmaceuticals, Inc., priority 2021, published 2023)
“Also recorded” adds a separate entry of the source.

Experiments:
patients with ALGS = assay: Predictors of 6-year EFS and TFS in maralixibat-treated patients from three long-term clinical trials; format: in vivo, human
Description: MRX-treated ALGS patients from 3 long-term clinical trials were followed for development of clinically significant events (LTx, surgical biliary diversion [SBD], hepatic decompensation [ascites requiring therapy and variceal bleeding], and death) for up to 6 yrs. TFS (LTx and death only) was also assessed. Those who were on MRX 48 weeks from the first dose and had lab results at 48 weeks were included in this analysis. Variables considered in the model included: liver biochemistries, platelets, pruritus (as assessed by ItchRO(Obs) 0¬4 scale), total serum bile acids (sBA), and age. Goodness of fit was assessed using Harrell's concordance statistic (C-statistic). Cutoffs were determined via a grid search. P-values are from a log-rank test.
Patients (N=76) with ALGS aged 14-207 months with moderate-to-severe pruritus were included in this analysis. Maralixibat-treated patients with ALGS from three long-term clinical trials (ClinicalTrials.gov ID: NCT02047318; ClinicalTrials.gov ID: NCT02160782; ClinicalTrials.gov ID: NCT02117713) were followed for development of first clinically significant event (LT, surgical biliary diversion, hepatic decompensation [ascites requiring therapy and variceal bleeding], or death) for up to six years. TFS (LT and death only) was also assessed. Patients who were on maralixibat 48 weeks from the first dose and had lab results at 48 weeks were included in this analysis.
Variables considered in the model included: liver biochemistries, platelets, pruritus (as assessed by Itch-Reported Outcome [Observer] [ItchRO(Obs)] 0-4 scale), total sBA, and age at initiation. These were explored at baseline, week 48, and change from baseline to week 48. Goodness of fit was assessed using Harrell's concordance statistic (C-statistic). Variables with a value ≥0.7 (indicating a good model) were selected for further analysis. Cutoffs for each variable were determined via a grid search across the range of values. Statistical comparisons between the cutoff groups were calculated using a log-rank test.

[1] = system: children with FIC1 or BSEP deficiencies (PFIC); assay: INDIGO open-label Phase 2 long-term efficacy and safety study; format: in vivo, human; conditions: for tolerability: up to 5 years of treatment
Description: INDIGO investigated the effect of maralixibat on sBA levels and cholestatic pruritus, alongside other biochemical markers of cholestasis and liver disease in these patients.
The study was conducted at 12 hospitals in France, Poland, the United Kingdom, and the United States. Screening evaluations were performed in the 6 weeks prior to the start of the study. In patients without documented ATP8B1 or ABCB11 mutations, genetic testing was performed.
The primary efficacy endpoint was the change in mean fasting sBA levels from Baseline to Week 13 in the overall intent-to-treat (ITT) study population. The key secondary efficacy endpoint was the mean change in observer-rated pruritus (Itch Reported Outcome Observer [ItchRO(Obs)]) score from Baseline to Week 13 in the overall ITT study population. Other secondary efficacy endpoints included the mean changes from Baseline to Week 13 in total cholesterol, low- and high-density lipoprotein cholesterol (LDL-C and HDL-C, respectively), and serum triglyceride levels in the overall ITT study population. Additional efficacy and safety analyses included the change from Baseline to Week 72 and Week 240 in sBA levels, patient height and weight, bile acid synthesis (as determined by the ratio between sBA levels and 7α-hydroxy-4-cholesten-3-one [7α-C4] levels), quality of life as measured by the Pediatric Quality of Life Inventory™ (PedsQL™), mean changes in ALT, aspartate aminotransferase (AST), and bilirubin (total and direct), lipid profiles, and FSV levels. The ItchRO assessment was not performed at Week 72, so data from Week 48 were used instead.
Efficacy and safety analyses were performed for the overall ITT study population as well as the two PFIC subtypes (FIC1 deficiency and BSEP deficiency) separately. Patients with BSEP deficiency were analyzed overall and according to their mutation type (t-BSEP and nt-BSEP). Long-term changes in pruritus scores, patient height, blood lipids, liver parameters, and transplant-free survival were assessed according to a responder analysis.
Quantitative analysis of the 15 major sBAs and serum 7α-C4 was performed at a single site (Cincinnati) by stable isotope dilution electrospray ionization liquid chromatography-mass spectrometry (LCMS/MS) using a fully validated proprietary assay that complies with College of American Pathologists/Clinical Laboratory Improvement Amendments certification. The study protocol defined a composite response to maralixibat as achieving a ≥1.0-point reduction in ItchRO(Obs) score and a ≥70% reduction or normalization of sBA levels from Baseline. […] Pruritus was measured using the ItchRO tool, which was specifically developed and validated to evaluate pruritus in children with cholestatic liver diseases, based on a five-point scale where 0=‘none’ and 4=‘very severe’. […] The ItchRO measure was completed twice daily via an eDiary. Parents/caregivers completed the ItchRO(Obs) assessment for all patients. Additionally, children ≥9 years of age completed the ItchRO(Pt) assessment. Levels of ALT, AST, bilirubin (total and direct), lipids, and FSV were assessed using standard clinical laboratory techniques. Quality of life was assessed using the PedsQL™ questionnaire. […] The occurrence of treatment-emergent adverse events (TEAEs) and serious adverse events (SAEs) was assessed throughout the study.

[2] = Week 48 sBA <200 μmol/L, n = 56
[3] = Week 48 sBA ≥200 μmol/L, n = 18
[4] = Week 48 total bilirubin <6.5 mg/dL, n = 52
[5] = Week 48 total bilirubin ≥6.5 mg/dL, n = 24
[6] = age at initiation of maralixibat <36 months, n = 21
[7] = age at initiation of maralixibat ≥36 months, n = 55
[8] = change from baseline to week 48 ItchRO(Obs) >1 pt reduction, n = 46
[9] = change from baseline to week 48 ItchRO(Obs) ≤1 pt reduction, n = 30

CCCCC1(CCCC)CS(=O)(=O)c2ccc(N(C)C)cc2[C@@H](c2ccc(OCc3ccc(C[N+]45CCN(CC4)CC5)cc3)cc2)[C@H]1O [maralixibat]
clinical event: LT (patients with ALGS; 76 patients): 10 n
clinical event: death (patients with ALGS; 76 patients): 2 n
clinical event: decompensation (patients with ALGS; 76 patients): 3 n
clinical event: surgical biliary diversion (patients with ALGS; 76 patients): 1 n
patients who experienced clinical events (patients with ALGS; 76 patients, up to six years): Sixteen
6-year EFS (patients with ALGS; [2]): 6-year EFS: 85%
6-year TFS (patients with ALGS; [2]): 6-year TFS: 90%
6-year EFS (patients with ALGS; [3]): 6-year EFS: 49%
6-year TFS (patients with ALGS; [3]): 6-year TFS: 49%
6-year EFS (patients with ALGS; [4]): 6-year EFS: 90%
6-year TFS (patients with ALGS; [4]): 6-year TFS: 94%
6-year EFS (patients with ALGS; [5]): 6-year EFS: 43%
6-year TFS (patients with ALGS; [5]): 6-year TFS: 42%
6-year EFS (patients with ALGS; [6]): 6-year EFS: 57%
6-year TFS (patients with ALGS; [6]): 6-year TFS: 57%
6-year EFS (patients with ALGS; [7]): 6-year EFS: 83%
6-year TFS (patients with ALGS; [7]): 6-year TFS: 87%
6-year EFS (patients with ALGS; [8]): 6-year EFS: 88%
6-year TFS (patients with ALGS; [8]): 6-year TFS: 93%
6-year EFS (patients with ALGS; [9]): 6-year EFS: 57%
6-year TFS (patients with ALGS; [9]): 6-year TFS: 57%
6-year EFS (%) (patients with ALGS; number of worse EFS predictor variables: 0): 89%
6-year EFS (%) (patients with ALGS; number of worse EFS predictor variables: 1): 89%
6-year EFS (%) (patients with ALGS; number of worse EFS predictor variables: 2): 86%
6-year EFS (%) (patients with ALGS; number of worse EFS predictor variables: 3): 29%
6-year EFS (%) (patients with ALGS; number of worse EFS predictor variables: 4): 33%
rate of 6-year EFS (patients with ALGS; patients with ≤2 predictors of worse EFS after 48 weeks of treatment): 88%
rate of 6-year EFS (patients with ALGS; patients with ≥3 predictors of worse EFS after 48 weeks of treatment): 31%
sBA responders who achieved response during once-daily dosing ([1]; 266 μg/kg once daily): six and Six
sBA responders who achieved response after switching to twice-daily dosing ([1]; 266 μg/kg twice daily, after Week 97): one
TEAE cough, patients ([1]; 18 patients): 55%
TEAE diarrhea, patients ([1]; 19 patients): 58%
TEAE pyrexia, patients ([1]; 20 patients): 61%
TEAEs mild or moderate in severity ([1]; 33 patients): 58%
patients who experienced ≥1 TEAE ([1]; 33 patients, result in words): All patients
sBA non-responders with transplant-free survival after >5 years ([1]; P<0.001 vs sBA responders, result in words): none
mean reduction from Baseline in ItchRO(Obs) score ([1]; Week 13, ITT population, 95% CI −1.04, −0.53, P<0.001): −0.8
mean reduction from Baseline in ItchRO(Pt) score ([1]; Week 13, ITT population, 95% CI −1.55, −0.47, P=0.002): −1.0
patients with serious TEAEs ([1]; during the study): 15 patients
patients with FIC1 deficiency who met the sBA responder criteria ([1]; eight patients with FIC1 deficiency, result in words): No patient
SAEs abdominal pain, diarrhea, and gastroenteritis ([1]; in vivo): two
patients who discontinued due to adverse events or liver transplantation following disease progression ([1]; in vivo): 12 patients
sBA responders listed for liver transplantation who were removed from the transplant waiting list ([1]; listed for refractory pruritus at the beginning of the study): Two
patients with nt-BSEP who achieved sBA response ([1]; n=19 nt-BSEP): 37%
patients with nt-BSEP with rapid and sustained reductions in sBA levels ([1]; of 19 patients with nt-BSEP): 6 patients
patients with nt-BSEP who achieved sBA response (reduction >75% from baseline or <102.0 μmol/L) ([1]; of 19 with nt-BSEP, during the study): seven
patients who discontinued maralixibat due to an adverse event ([1]; one with FIC1 deficiency, seven with BSEP deficiency): Eight
change in sBA levels from Baseline to Week 13 ([1]; overall ITT population (33 patients), 95% CI −74.830, 41.070, P=0.884): -16.9 µmol/L
mean levels of sBA, ItchRO(Obs) scores, and PedsQL scores versus Baseline ([1]; patients with FIC1 deficiency, long-term, result in words): did not change significantly
change in mean level of serum 7α-C4 ([1]; patients with nt-BSEP, Week 240, 95% CI 4.07, 48.50, P=0.027): +26.29 ng/mL
deaths during the study ([1]; result in words): No deaths
effect on levels of FSV or liver transaminases ([1]; result in words): did not have any significant detrimental effects
sBA non-responders with clinically meaningful (>1.0 points) reduction in ItchRO(Obs) ([1]; sBA non-responders): Three
change in weight z-score (decrease) ([1]; sBA non-responders, Week 72, 95% CI −0.606, −0.012): −0.30
time to decrease of sBA levels upon treatment initiation ([1]; sBA responders): 2-4 Weeks
change from Baseline in mean height z-score ([1]; sBA responders, Week 72, 95% CI 0.369, 0.976, P=0.0016): 0.67
change from Baseline in mean weight z-score ([1]; sBA responders, Week 72, 95% CI −0.001, 0.603, P=0.051): 0.30
serum ALT, AST, and bilirubin levels ([1]; sBA responders, if elevated at Baseline, result in words): improvements and/or normalization
change in mean PedsQL score from Baseline to Week 240 ([1]; sBA responders, 95% CI 6.7, 40.6, P=0.014): 24 points
7α-C4/sBA ratio compared with Baseline ([1]; sBA responders, result in words): generally increased; also recorded: increased rapidly
patients with t-BSEP who met the sBA responder criteria ([1]; six patients with t-BSEP, result in words): No patients and No patient and none
tolerability ([1]; result in words): generally safe and well tolerated
tolerability ([1]; result in words, listed as Maralixibat): generally well-tolerated; also recorded: generally well tolerated
